Tests used:
Assay in all cases: NanoBRET
Assay type in all cases: cell-based
[1] = target: T1, CDK13/Cyclin K (Homo sapiens, UniProt Q14004); details: read-out: NanoBRET EC50 ± SEM CDK13/Cyclin K
T1 construct: Full-length kinases were obtained as plasmids cloned in frame with a terminal NanoLuc-fusion; CS1810C93 (CCNK); host or cells: HEK293T
Method: (§1) The assay was performed as described previously. In brief: Full-length kinases were obtained as plasmids cloned in frame with a terminal NanoLuc-fusion (Promega, Madison, WI, USA), as specified in table (Table S6). Plasmids were transfected into HEK293T cells using FuGENE HD (Promega, E2312) and proteins were allowed to express for 20h. Serially diluted inhibitor and NanoBRET Kinase Tracer (Promega) at a concentration determined previously as the KD,app (Table S5) were pipetted into white 384-well plates (Greiner 781207) using an Echo acoustic dispenser (Labcyte, San Jose, CA, USA). The corresponding protein-transfected cells were added and reseeded at a density of 2.5 × 10^5 cells/mL after trypsinization and resuspending in Opti-MEM without phenol red (Life Technologies, Carlsbad, CA, USA). The system was allowed to equilibrate for 2 h at 37 °C/5% CO2 prior to BRET measurements. To measure BRET, NanoBRET NanoGlo Substrate + Extracellular NanoLuc Inhibitor (Promega, N2540) was added as per the manufacturer’s protocol, and filtered luminescence was measured on a PHERAstar plate reader (BMG Labtech, Ortenberg, Germany) equipped with a luminescence filter pair (450 nm BP filter (donor) and 610 nm LP filter (acceptor)). Competitive displacement data were then graphed using GraphPad Prism 9 software using a normalized 3-parameter curve fit with the following equation: Y = 100/(1 + 10^(X–LogEC50)).

[2] = target: T2, CDK2/Cyclin A1 (Homo sapiens, UniProt P24941); details: read-out: NanoBRET EC50 ± SEM CDK2/Cyclin A1
T2 construct: Full-length kinases were obtained as plasmids cloned in frame with a terminal NanoLuc-fusion; CS1810C172 (CCNA1); host or cells: HEK293T
Method: as §1

[3] = target: T3, CDK15/Cyclin Y (Homo sapiens, UniProt Q96Q40); details: read-out: NanoBRET EC50 ± SEM CDK15/Cyclin Y
T3 construct: Full-length kinases were obtained as plasmids cloned in frame with a terminal NanoLuc-fusion; CS1810C178 (CCNY); host or cells: HEK293T
Method: as §1

[4] = target: T4, CDK9/Cyclin T1 (Homo sapiens, UniProt P50750); details: read-out: NanoBRET EC50 ± SEM CDK9/Cyclin T1
T4 construct: Full-length kinases were obtained as plasmids cloned in frame with a terminal NanoLuc-fusion; CS1810C177 (CCNT1); host or cells: HEK293T
Method: as §1

[5] = target: T5, CDK4/Cyclin D3 (Homo sapiens, UniProt P11802); details: read-out: NanoBRET EC50 ± SEM CDK4/Cyclin D3
T5 construct: Full-length kinases were obtained as plasmids cloned in frame with a terminal NanoLuc-fusion; CS1810C87 (CCND3); host or cells: HEK293T
Method: as §1

[6] = target: T6, CDK6/Cyclin D3 (Homo sapiens, UniProt Q00534); details: read-out: NanoBRET EC50 ± SEM CDK6/Cyclin D3
T6 construct: Full-length kinases were obtained as plasmids cloned in frame with a terminal NanoLuc-fusion; CS1810C87 (CCND3); host or cells: HEK293T
Method: as §1

[7] = target: T7, CDK2/Cyclin E1 (Homo sapiens, UniProt P24941); details: read-out: NanoBRET EC50 ± SEM CDK2/Cyclin E1
T7 construct: Full-length kinases were obtained as plasmids cloned in frame with a terminal NanoLuc-fusion; CS1810C171 (CCNE1); host or cells: HEK293T
Method: as §1

[8] = target: CDK20/Cyclin H (Homo sapiens, UniProt Q8IZL9); details: read-out: NanoBRET EC50 ± SEM CDK20/Cyclin H
Method: as §1

[9] = target: T8, CDK6/Cyclin D1 (Homo sapiens, UniProt Q00534); details: read-out: NanoBRET EC50 ± SEM CDK6/Cyclin D1
T8 construct: Full-length kinases were obtained as plasmids cloned in frame with a terminal NanoLuc-fusion; CS1810C118 (CCND1); host or cells: HEK293T
Method: as §1

[10] = target: CDK11B/Cyclin L2 (Homo sapiens, UniProt P21127); details: read-out: NanoBRET EC50 ± SEM CDK11B/Cyclin L2
Method: as §1

[11] = target: T9, CDK2/Cyclin D1 (Homo sapiens, UniProt P24941); details: read-out: NanoBRET EC50 ± SEM CDK2/Cyclin D1
T9 construct: Full-length kinases were obtained as plasmids cloned in frame with a terminal NanoLuc-fusion; CS1810C118 (CCND1); host or cells: HEK293T
Method: as §1

[12] = target: T10, CDK3/Cyclin E2 (Homo sapiens, UniProt Q00526); details: read-out: NanoBRET EC50 ± SEM CDK3/Cyclin E2
T10 construct: Full-length kinases were obtained as plasmids cloned in frame with a terminal NanoLuc-fusion; CCNE2: 'Promega', no number; host or cells: HEK293T
Method: as §1

[13] = target: CDK10/Cyclin L2 (Homo sapiens, UniProt Q15131); details: read-out: NanoBRET EC50 ± SEM CDK10/Cyclin L2
Method: as §1

T5 sequence (P11802 whole entry, the tested form may be a part): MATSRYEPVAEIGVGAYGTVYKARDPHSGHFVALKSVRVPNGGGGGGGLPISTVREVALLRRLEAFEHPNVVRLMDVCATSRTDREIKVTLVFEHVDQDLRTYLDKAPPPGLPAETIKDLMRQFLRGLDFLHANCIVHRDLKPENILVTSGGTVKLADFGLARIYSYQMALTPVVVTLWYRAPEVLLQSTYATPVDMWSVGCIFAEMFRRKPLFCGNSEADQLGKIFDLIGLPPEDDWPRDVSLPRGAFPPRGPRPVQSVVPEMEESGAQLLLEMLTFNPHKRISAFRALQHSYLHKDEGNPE
T5 sequence (P30281 whole entry partner, the tested form may be a part): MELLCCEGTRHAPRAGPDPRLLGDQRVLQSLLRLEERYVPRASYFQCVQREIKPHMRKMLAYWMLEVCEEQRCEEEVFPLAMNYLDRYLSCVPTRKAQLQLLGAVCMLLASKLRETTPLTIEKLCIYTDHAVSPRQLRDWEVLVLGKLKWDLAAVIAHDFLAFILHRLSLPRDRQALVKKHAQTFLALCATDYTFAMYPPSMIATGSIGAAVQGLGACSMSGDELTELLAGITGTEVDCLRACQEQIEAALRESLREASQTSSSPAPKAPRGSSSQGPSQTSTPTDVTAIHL
T6 sequence (Q00534 whole entry, the tested form may be a part): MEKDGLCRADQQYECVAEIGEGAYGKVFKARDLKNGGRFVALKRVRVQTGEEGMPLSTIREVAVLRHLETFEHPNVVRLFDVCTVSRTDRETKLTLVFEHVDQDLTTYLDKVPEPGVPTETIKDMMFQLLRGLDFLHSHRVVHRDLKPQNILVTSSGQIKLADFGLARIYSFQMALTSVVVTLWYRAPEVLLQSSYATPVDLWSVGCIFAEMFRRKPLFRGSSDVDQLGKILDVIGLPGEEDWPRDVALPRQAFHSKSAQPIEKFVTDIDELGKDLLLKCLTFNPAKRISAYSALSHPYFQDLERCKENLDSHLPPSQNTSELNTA
T6 sequence (P30281 whole entry partner, the tested form may be a part): as the sequence (P30281 whole entry partner, the tested form may be a part) above
T8 sequence (Q00534 whole entry, the tested form may be a part): as the sequence (Q00534 whole entry, the tested form may be a part) above
T8 sequence (P24385 whole entry partner, the tested form may be a part): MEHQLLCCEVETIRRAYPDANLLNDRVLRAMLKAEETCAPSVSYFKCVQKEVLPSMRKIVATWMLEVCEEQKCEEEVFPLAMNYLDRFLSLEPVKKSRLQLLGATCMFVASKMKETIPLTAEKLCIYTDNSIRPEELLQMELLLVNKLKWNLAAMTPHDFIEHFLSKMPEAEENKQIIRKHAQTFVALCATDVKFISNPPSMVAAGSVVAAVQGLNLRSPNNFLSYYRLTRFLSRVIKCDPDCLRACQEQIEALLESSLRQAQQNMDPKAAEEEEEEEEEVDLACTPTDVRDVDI
Sequence of CDK11B/Cyclin L2 (P21127 whole entry): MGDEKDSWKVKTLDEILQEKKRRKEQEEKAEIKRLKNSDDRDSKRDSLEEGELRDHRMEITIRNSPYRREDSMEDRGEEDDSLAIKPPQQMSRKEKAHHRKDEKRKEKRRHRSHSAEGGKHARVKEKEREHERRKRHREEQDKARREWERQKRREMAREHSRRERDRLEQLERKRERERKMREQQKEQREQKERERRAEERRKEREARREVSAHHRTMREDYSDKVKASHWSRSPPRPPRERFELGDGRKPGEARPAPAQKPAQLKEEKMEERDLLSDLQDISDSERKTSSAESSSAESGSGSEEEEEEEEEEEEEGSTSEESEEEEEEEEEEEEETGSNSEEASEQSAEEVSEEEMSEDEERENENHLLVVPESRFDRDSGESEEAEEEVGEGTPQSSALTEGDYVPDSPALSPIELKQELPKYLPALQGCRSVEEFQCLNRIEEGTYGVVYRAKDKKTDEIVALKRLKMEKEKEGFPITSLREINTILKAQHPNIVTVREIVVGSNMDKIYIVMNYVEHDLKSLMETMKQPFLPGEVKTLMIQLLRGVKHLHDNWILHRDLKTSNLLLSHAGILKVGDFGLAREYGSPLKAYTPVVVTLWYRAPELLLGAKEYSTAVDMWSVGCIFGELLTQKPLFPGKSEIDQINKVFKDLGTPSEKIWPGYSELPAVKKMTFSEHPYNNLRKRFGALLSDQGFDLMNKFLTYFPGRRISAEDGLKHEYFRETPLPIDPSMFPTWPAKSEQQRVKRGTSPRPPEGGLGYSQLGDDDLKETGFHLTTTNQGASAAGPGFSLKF
Sequence of CDK11B/Cyclin L2 (Q96S94 whole entry partner): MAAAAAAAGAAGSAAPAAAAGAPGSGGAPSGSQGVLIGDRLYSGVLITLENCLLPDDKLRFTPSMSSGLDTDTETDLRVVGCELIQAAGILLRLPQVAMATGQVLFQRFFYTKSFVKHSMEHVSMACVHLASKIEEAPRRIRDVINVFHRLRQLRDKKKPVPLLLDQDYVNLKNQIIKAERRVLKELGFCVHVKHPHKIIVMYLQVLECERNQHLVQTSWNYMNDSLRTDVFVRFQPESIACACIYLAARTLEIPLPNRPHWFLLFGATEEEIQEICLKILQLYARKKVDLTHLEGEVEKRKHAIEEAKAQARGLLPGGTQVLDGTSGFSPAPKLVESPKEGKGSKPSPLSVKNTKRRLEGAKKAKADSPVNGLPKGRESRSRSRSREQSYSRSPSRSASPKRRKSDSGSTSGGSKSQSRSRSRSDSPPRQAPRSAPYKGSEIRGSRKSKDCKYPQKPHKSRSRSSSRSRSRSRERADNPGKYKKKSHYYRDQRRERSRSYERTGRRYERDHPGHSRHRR
T3 sequence (Q96Q40 whole entry, the tested form may be a part): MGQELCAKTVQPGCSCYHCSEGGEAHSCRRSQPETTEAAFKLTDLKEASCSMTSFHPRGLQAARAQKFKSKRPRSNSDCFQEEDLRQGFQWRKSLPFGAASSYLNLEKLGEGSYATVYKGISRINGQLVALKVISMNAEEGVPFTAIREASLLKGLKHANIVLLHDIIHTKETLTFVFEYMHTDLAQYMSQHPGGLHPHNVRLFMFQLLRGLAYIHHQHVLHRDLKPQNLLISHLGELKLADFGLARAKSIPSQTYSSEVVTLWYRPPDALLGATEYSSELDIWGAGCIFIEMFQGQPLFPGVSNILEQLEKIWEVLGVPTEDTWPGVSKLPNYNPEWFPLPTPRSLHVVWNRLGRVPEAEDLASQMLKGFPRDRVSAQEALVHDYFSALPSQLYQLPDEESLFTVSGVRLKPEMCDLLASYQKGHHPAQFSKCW
T3 sequence (Q8ND76 2-341 partner limits assumed): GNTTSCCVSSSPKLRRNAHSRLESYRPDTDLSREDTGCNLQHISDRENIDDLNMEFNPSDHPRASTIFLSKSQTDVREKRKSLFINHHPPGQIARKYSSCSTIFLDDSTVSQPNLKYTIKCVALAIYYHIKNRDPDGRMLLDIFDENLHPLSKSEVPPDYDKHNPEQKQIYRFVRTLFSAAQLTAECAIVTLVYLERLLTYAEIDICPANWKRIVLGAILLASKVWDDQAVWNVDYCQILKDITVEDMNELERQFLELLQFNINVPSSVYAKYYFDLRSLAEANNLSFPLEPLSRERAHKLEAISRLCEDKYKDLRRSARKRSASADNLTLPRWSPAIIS
T10 sequence (Q00526 whole entry, the tested form may be a part): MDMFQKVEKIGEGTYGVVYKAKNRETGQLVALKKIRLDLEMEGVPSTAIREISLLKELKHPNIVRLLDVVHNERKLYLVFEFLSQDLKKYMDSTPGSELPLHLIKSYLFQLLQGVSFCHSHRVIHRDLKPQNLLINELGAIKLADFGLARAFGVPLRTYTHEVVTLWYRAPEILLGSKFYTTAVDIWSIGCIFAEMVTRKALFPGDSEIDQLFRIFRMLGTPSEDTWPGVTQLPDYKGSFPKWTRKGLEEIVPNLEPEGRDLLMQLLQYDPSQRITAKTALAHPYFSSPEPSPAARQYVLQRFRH
T10 sequence (O96020 whole entry partner, the tested form may be a part): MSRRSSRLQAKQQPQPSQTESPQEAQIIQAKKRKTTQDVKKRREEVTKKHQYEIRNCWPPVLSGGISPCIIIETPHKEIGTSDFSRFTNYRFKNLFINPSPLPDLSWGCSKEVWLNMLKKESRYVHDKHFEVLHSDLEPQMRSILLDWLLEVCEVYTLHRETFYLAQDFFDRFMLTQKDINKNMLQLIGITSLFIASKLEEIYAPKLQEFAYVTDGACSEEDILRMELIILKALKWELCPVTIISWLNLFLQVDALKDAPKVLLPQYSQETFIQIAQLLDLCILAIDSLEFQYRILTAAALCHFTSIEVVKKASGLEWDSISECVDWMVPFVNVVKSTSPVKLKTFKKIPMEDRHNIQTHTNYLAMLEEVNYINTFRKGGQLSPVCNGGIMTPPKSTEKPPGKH
Sequence of CDK10/Cyclin L2 (Q15131 whole entry): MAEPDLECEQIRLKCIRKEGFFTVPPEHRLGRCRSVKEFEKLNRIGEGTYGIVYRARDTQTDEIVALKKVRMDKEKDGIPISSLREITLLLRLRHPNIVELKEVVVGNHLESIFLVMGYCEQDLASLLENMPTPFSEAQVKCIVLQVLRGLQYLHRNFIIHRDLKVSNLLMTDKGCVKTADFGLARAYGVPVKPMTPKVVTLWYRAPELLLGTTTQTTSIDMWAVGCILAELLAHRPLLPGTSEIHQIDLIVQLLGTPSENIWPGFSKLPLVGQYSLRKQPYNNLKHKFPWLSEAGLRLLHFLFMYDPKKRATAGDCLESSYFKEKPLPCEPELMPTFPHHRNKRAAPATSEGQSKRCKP

Structure (SMILES)	EC50 [1]	EC50 [2]	EC50 [3]	EC50 [4]	EC50 [5]	EC50 [6]	EC50 [7]	EC50 [8]	EC50 [9]	EC50 [10]	EC50 [11]	EC50 [12]	EC50 [13]
CC(C)OC(=O)c1cc(Nc2ccnc(NCc3ccc(NC(=O)OC(C)(C)C)cc3)n2)n[nH]1 [42d, isopropyl 3-((2-((4-((tert-butoxycarbonyl)amino)benzyl)amino)pyrimidin-4-yl)amino)-1H-pyrazole-5-carboxylate]	3.83 ± 2.28 µM	32.5 ± 13.9 µM	0.167 ± 0.0149 µM	0.408 ± 0.14 µM	0.508 ± 0.0866 µM	2.08 ± 0.935 µM	2.6 ± 0.914 µM	0.745 ± 0.35 µM	0.959 ± 0.391 µM	2.99 ± 1.33 µM	4.86 ± 2.39 µM	26.9 ± 13.4 µM	0.3336 ± 0.0002 µM
COC(=O)c1cc(Nc2ccnc(NCc3ccc(NC(=O)OC(C)(C)C)cc3)n2)[nH]n1 [21i, methyl 5-((2-((4-((tert-butoxycarbonyl)amino)benzyl)amino)pyrimidin-4-yl)amino)-1H-pyrazole-3-carboxylate]	24.2 ± 5.88 µM	36.7 ± 3.31 µM	2.09 ± 0.496 µM	6.87 ± 2.19 µM	6.78 ± 1.46 µM	6.55 ± 3.48 µM	20.9 ± 5.69 µM	8.42 ± 0.629 µM	7.45 ± 1.74 µM	16.7 ± 7.89 µM	33.5 ± 1.52 µM	38.8 ± 4.64 µM	7.93 ± 2.93 µM
CC(C)(C)OC(=O)Nc1ccc(CNc2nccc(Nc3cc(C(=O)OC(C)(C)C)[nH]n3)n2)cc1 [43d, tert-butyl 3-((2-((4-((tert-butoxycarbonyl)amino)benzyl)amino)pyrimidin-4-yl)amino)-1H-pyrazole-5-carboxylate]		1.67 ± 0.42 µM	0.302 µM	0.805 ± 0.24 µM	0.908 ± 0.113 µM	2.91 ± 1.57 µM	1.86 ± 0.582 µM	1.71 ± 0.222 µM	1.74 ± 0.206 µM	3.58 ± 1.73 µM	3.07 ± 1.86 µM	16.1 ± 7.62 µM	0.651 µM
N#CCc1ccc(Nc2nccc(Nc3cc(C4CC4)[nH]n3)n2)cc1 [compound 1, reference compound]	0.0661 ± 0.0199 µM	0.06 ± 0.0411 µM	0.0934 ± 0.0417 µM	0.0865 ± 0.0109 µM	0.0321 ± 0.0031 µM	0.0453 ± 0.0356 µM	0.0267 ± 0.0063 µM	2.66 ± 0.568 µM	0.0105 ± 0.0038 µM	0.669 ± 0.406 µM	0.0386 ± 0.0173 µM	0.0384 ± 0.0304 µM	0.325 ± 0.0364 µM
